The source made the active and inactive calls.
Assays:
[1] = Luminescence Cell-Based Dose Retest to Confirm Inhibitors of Cancer Stem Cells. [Related pubchem assays (depositor defined):AID2717, AID2721]; format: functional; conditions: Homo sapiens
[2] = biological target: Neurotensin receptor type 1 (Homo sapiens, UniProt P30989); format: functional;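 note: Image-based confirmatory dose-response assay measuring agonist activity at NTR1; NTR1-expressing U2OS osteosarcoma cells imaged for beta-arrestin GFP spot formation; agonist potency where compounds increase beta-arrestin recruitment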
Sequence of Neurotensin receptor type 1 (P30989 whole entry, the tested form may be a part): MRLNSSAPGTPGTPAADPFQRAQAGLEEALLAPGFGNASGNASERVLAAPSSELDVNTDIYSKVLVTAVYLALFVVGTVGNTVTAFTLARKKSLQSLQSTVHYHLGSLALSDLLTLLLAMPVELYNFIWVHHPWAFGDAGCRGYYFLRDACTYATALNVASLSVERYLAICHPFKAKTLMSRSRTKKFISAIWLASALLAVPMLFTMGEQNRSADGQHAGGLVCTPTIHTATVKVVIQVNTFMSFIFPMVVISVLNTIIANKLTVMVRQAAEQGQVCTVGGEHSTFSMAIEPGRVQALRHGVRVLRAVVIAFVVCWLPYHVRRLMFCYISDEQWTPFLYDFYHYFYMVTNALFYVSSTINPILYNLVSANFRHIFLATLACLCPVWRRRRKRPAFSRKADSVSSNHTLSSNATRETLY

[3] = Fluorescence-based cell-based high throughput dose response assay for inhibitors of the interaction of nucleotide-binding oligomerization domain containing 2 (NOD2) and the receptor-interacting serine-threonine kinase 2 (RIPK2).; format: functional; conditions: Homo sapiens
[4] = NIH-3T3 fibroblast cytotoxicity, dose response, cytotoxicity control, cell-based, fluorescence, Alamar Blue, secondary assay (AID 2327); format: functional;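 note: NIH-3T3 mouse fibroblasts cultured with fluconazole at 8 µg/mL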
[5] = inhibitors of firefly luciferase expression or activity, dose response, H4 neuroglioma cells, luminescence (AID 1990); format: functional, cell-based
[6] = Luminescence Cell-Based Dose Response HTS to Identify Inhibitors of 5'UTR Stem-Loop Driven Prion Protein mRNA Translation in H4 Neuroglioblastoma Cells. [Related pubchem assays: 1827 (Project Summary), 1813 (Primary HTS)]; format: functional
[7] = inhibitors of SNCA 5'UTR-driven reporter translation, confirmation, H4 neuroglioma cells, luminescence (AID 1988); format: functional, cell-based
[8] = inhibitors of intracellular T. cruzi replication, confirmation, NIH3T3 host cells, beta-gal luminescence (AID 2044); format: functional, cell-based;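 note: intracellular parasites grown in NIH/3T3 mouse fibroblasts as host cells; luminescent beta-galactosidase reporter signal from transgenic T. cruzi replicating inside host cells; inhibitors lower the luminescence signal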
[9] = biological target: T1, Calpain-2 catalytic subunit (Sus scrofa, UniProt P43367); assay: pig calpain II inhibitor potency, dose response, biochemical, fluorogenic peptide substrate (AID 1420); format: functional
T1 sequence (P43367 whole entry): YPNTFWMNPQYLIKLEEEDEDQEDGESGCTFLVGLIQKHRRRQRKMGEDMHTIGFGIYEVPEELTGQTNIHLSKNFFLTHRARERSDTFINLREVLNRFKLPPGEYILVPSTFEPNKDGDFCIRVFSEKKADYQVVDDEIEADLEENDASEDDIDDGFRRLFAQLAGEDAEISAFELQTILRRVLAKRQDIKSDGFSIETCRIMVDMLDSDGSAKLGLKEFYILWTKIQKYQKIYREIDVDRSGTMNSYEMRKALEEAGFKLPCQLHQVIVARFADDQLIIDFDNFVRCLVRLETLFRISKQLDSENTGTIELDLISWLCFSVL

[10] = cytotoxicity toward NIH3T3 fibroblasts, dose response, counter-screen, cell-based, ATP luminescence, mouse fibroblasts (AID 2010); format: functional;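 note: cells exposed to compound for about 90 hours before reading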
[11] = cytotoxicity in HEK-293T cells, dose response, cytotoxicity control for TCR NF-kB inhibitor project, luminescence, T-cell screen hits (AID 489026); format: functional, cell-based;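 note: cells exposed to compound about 14 hours before the viability readout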
Tumor necrosis factor = Tumor necrosis factor (Homo sapiens, UniProt P01375); assay: TNFa-triggered NF-kB activation inhibitors, SAR follow-up, cell-based, revised (AID 2337); format: functional
Sequence of Tumor necrosis factor (P01375 whole entry, the tested form may be a part): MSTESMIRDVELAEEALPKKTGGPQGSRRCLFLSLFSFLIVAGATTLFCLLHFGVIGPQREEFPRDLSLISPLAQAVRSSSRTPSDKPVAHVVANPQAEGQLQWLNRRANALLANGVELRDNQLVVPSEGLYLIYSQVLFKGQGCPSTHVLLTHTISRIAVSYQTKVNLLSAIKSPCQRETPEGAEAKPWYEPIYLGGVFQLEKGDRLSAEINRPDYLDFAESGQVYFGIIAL

[12] = biological target: Nucleotide-binding oligomerization domain-containing protein 1 (Homo sapiens, UniProt Q9Y239); assay: NOD1 signaling inhibitors, SAR follow-up, revised (AID 2333); format: functional
Sequence of Nucleotide-binding oligomerization domain-containing protein 1 (Q9Y239 whole entry, the tested form may be a part): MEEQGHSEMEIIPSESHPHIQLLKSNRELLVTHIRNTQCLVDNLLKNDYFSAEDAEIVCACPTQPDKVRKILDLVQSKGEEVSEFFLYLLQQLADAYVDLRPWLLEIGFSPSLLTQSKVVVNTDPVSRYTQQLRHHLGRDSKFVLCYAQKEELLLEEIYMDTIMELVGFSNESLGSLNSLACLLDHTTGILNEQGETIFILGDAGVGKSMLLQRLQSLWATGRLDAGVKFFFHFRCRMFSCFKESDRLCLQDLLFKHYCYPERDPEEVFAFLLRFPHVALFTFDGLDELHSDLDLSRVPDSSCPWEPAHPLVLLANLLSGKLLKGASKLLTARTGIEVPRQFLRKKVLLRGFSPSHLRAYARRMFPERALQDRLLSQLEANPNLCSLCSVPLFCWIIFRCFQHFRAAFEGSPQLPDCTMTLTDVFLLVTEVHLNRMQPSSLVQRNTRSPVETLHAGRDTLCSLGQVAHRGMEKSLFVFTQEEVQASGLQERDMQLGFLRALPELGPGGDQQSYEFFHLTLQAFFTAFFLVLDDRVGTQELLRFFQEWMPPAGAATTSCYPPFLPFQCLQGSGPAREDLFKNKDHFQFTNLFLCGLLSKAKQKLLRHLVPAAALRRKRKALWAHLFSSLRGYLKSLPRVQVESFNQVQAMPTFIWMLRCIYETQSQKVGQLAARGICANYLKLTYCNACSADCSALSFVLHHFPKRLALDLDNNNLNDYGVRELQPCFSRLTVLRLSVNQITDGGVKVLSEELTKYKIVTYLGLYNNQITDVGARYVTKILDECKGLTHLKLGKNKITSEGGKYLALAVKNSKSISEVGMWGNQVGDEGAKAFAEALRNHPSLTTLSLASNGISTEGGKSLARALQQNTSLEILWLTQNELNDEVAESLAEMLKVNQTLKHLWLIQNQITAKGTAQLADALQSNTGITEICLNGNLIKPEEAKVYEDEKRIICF

HEK293 = assay: cells; conditions: Homo sapiens;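 note: cells exposed to compound for 14 hours overnight before viability readout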
[13] = biological target: T2, Voltage-gated N-type calcium channel alpha-1B subunit/Amyloid beta A4 precursor protein-binding family A member 1 (Homo sapiens, UniProt Q00975+Q02410); assay: disruptors of Mint-PDZ/N-type channel peptide interaction – biochemical, HTRF, set 2, SAR follow-up (AID 434980); format: functional
T2 sequence (Q00975 whole entry): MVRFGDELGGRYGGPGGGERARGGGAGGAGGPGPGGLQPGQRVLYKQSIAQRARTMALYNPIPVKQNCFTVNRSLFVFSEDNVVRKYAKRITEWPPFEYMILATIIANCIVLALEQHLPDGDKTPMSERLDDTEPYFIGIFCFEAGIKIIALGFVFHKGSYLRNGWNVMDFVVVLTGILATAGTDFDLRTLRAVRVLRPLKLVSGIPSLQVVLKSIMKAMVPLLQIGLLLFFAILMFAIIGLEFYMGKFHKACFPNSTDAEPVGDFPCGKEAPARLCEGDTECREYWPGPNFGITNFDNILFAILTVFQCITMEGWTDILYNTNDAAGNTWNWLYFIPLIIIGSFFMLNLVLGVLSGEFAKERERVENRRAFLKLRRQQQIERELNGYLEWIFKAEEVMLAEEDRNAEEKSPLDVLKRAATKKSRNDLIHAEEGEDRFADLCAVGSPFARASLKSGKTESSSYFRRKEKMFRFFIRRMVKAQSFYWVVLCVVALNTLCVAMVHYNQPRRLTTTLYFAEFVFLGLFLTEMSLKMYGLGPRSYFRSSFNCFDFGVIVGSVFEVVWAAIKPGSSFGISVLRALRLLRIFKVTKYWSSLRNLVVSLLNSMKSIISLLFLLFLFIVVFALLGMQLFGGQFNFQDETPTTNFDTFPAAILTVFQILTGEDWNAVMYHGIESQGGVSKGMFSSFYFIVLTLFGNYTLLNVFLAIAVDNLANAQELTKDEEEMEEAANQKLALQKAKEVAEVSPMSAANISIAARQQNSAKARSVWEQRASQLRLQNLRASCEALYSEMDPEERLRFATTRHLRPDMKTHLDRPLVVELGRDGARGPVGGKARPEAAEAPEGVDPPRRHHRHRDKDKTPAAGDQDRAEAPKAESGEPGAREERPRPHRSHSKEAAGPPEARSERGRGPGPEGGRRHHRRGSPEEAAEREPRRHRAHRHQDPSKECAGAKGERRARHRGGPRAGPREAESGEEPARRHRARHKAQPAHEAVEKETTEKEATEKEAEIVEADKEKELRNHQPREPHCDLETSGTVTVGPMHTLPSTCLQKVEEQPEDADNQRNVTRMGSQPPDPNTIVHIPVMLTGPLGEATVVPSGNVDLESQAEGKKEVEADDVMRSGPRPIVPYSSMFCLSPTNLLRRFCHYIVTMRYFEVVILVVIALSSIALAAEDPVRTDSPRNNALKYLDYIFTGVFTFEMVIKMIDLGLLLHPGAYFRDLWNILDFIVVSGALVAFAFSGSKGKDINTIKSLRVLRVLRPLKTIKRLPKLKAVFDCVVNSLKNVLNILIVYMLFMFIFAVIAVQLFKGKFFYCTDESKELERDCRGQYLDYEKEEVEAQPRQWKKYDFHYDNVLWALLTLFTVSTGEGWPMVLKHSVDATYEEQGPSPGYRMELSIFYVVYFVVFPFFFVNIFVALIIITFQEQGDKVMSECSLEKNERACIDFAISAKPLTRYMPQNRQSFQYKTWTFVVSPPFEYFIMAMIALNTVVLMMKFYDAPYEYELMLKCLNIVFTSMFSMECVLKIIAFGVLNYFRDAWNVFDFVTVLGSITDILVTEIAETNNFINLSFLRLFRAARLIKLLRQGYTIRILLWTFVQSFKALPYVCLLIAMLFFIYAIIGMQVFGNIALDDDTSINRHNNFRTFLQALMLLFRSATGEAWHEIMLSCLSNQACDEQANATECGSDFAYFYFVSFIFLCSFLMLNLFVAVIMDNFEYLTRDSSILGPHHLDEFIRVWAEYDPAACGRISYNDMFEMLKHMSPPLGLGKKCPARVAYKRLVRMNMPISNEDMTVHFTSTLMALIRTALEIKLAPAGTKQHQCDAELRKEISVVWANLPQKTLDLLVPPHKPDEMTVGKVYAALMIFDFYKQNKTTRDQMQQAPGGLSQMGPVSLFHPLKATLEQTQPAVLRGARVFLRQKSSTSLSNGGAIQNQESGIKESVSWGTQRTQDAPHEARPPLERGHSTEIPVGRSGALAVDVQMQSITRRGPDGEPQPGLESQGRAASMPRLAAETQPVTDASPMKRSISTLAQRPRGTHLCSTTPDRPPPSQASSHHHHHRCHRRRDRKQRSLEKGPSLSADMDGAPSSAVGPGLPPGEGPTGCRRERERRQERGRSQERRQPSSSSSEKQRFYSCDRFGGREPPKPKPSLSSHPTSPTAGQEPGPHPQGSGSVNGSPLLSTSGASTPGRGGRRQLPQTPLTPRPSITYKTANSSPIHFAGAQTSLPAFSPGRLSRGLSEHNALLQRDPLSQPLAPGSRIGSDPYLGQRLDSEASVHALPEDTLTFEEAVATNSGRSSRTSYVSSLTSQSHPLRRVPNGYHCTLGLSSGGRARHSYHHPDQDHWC
T2 sequence (Q02410 whole entry): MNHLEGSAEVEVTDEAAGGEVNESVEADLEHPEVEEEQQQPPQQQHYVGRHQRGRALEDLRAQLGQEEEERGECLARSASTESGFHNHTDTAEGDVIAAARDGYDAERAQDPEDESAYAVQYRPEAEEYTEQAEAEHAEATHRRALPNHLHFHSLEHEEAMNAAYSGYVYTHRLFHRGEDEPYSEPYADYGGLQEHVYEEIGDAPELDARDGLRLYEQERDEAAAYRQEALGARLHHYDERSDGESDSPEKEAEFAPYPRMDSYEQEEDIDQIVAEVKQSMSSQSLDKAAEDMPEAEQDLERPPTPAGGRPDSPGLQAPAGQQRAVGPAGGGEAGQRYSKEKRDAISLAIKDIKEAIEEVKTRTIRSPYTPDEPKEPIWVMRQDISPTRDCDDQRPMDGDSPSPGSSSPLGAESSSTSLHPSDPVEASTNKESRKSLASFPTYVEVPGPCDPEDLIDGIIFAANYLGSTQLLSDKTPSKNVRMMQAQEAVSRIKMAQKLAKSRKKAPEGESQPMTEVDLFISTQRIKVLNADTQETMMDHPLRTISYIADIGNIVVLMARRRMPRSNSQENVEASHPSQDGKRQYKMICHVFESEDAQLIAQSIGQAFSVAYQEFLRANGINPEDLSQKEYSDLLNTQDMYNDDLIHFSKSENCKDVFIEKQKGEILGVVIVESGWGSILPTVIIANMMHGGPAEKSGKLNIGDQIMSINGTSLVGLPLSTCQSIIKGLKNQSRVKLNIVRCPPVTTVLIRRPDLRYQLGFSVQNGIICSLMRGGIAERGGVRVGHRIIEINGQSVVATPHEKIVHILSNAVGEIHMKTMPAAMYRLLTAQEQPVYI

[14] = biological target: T2, Voltage-gated N-type calcium channel alpha-1B subunit/Amyloid beta A4 precursor protein-binding family A member 1; assay: disruptors of Mint-PDZ/N-type channel peptide interaction – biochemical, HTRF, SAR follow-up (AID 2489); format: functional
[15] = biological target: DNA damage-inducible transcript 3 protein (Mus musculus, UniProt P35639); format: functional, Cricetulus griseus
Sequence of DNA damage-inducible transcript 3 protein (P35639 whole entry): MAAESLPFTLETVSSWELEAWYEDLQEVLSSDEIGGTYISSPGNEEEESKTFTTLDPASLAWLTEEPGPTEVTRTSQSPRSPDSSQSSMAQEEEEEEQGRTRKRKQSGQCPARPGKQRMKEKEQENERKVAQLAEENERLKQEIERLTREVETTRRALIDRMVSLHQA

INS1 = assay: beta cell apoptosis inhibitors, cytokine rescue, dose response, luminescence, retest (AID 449756); format: functional, cell-based; conditions: Rattus norvegicus;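 note: cell death triggered by IL-1 beta plus TNF-alpha plus IFN-gamma mixture; protective hits raise ATP signal compared with cytokine alone wells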

For `COc1ccc(C(=O)/C=C2/C(=O)Nc3ccccc32)c(OC)c1`, which AC50 [1] is on record?
Its AC50 is 5.87 µM (active).

What about the EC50 [2] of the same molecule?
Its EC50 is 24.2 µM (inactive).

And the IC50 [3]?
Its IC50 is 19.5 µM (inactive).

For `CCCCCCCCCn1c2c(c(=N)c3c1CCC3)CCCC2`, which EC50 [4] is on record?
Its EC50 is 60.2 µM (active).

What about the EC50 [5] of the same molecule?
The EC50 was 6.69 µM (active).

What about the EC50 [6] of the same molecule?
Its EC50 is 6.11 µM (active).

What about the EC50 [7] of the same molecule?
The EC50 was 3.52 µM (active).

What about the EC50 [8] of the same molecule?
Its EC50 is < 0.1 µM (active).

And the IC50 [9]?
Its IC50 is 4.68 µM (active).

What about the EC50 [10] of the same molecule?
The EC50 was 3.44 µM (active).

And the EC50 [2]?
The EC50 was 6.65 µM (active).

What about the IC50 [11] of the same molecule?
Its IC50 is 42.1 µM (inactive).

What about the EC50 (cells) of the same molecule?
Its EC50 is 0.011 µM (active).

With `CC(=O)N1c2ccc(S(=O)(=O)N3CCN(c4ccccc4)CC3)cc2CC1C` (stereo unspecified) as the molecule, how does the IC50 (Tumor necrosis factor) read?
Its IC50 is 14.1 µM (active).

And the IC50 [12]?
Its IC50 is 11.1 µM (active).

What about the IC50 (HEK293) of the same molecule?
The IC50 was > 20 µM (inactive).

With `O=C(c1cc(-c2ccco2)nc2ccccc12)N1CCC(c2ccccc2)C1` (stereo unspecified) as the molecule, how does the IC50 [13] read?
The IC50 was 13.6 µM (active).

What about the IC50 [14] of the same molecule?
Its IC50 is > 56.8 µM (inactive).

With `COc1ccc(-c2nn(-c3ccccc3)cc2/C=N/N2C(=O)CSC2=S)cc1` as the molecule, how does the AC50 [1] read?
Its AC50 is 2.08 µM (active).

What about the “Absolute IC50 (CHOP)” value [15] of the same molecule?
Its value is 10 µM.

And the AC50 (INS1)?
The AC50 was 4.38 µM (active).
